{
  "source": "paper PMC5962729",
  "about": "(Frontiers in Pharmacology, 2018)",
  "key": {"UGT1A1": {"tested_on": "UGT1A1", "experiment": "Expression level of UGT1A1 in rat liver by UHPLC-MS/MS", "format": "in vivo", "procedure": "Male Sprague Dawley rats (230 ± 20 g, 6–8 weeks of age) were purchased from B&K Laboratory Animal, Corp. Ltd. (Shanghai, China) and fed in the Laboratory Animal Center of Shanghai University of Traditional Chinese Medicine. All rats were allowed to acclimatize for 3 days before experimentation. The rats were randomly divided into six groups (n = 5 for each group). […] Moreover, groups 1 and 2 were intragastrically treated with physiological saline (0.9%) at a dose of 1 mL/100 g. […] At the end of the experiment, all rats were euthanized by CO2 inhalation. The serum samples were stored at -70°C until analysis, and liver samples were isolated and stored at -70°C for further analysis, whereas the central part of the right large lobe of the liver was used for histological examination.\nBiotransformation of xenobiotics and endogenous compounds is a crucial step in the absorption and elimination of potentially harmful substances from the human body, a process that could be affected by the levels of pharmacokinetic enzymes and transporter proteins. […]\nTotal membrane protein was isolated (in triplicate) from liver tissue according to the Native Membrane Protein Extraction Kit protocol. Subsequently, protein concentrations were determined by applying the BCA Protein Assay Kit. […]"}, "OATP1A2": {"tested_on": "OATP1A2", "experiment": "Expression level of OATP1A2 in rat liver by UHPLC-MS/MS", "format": "in vivo", "protocol": "(§1) Male Sprague Dawley rats (230 ± 20 g, 6–8 weeks of age) were purchased from B&K Laboratory Animal, Corp. Ltd. (Shanghai, China) and fed in the Laboratory Animal Center of Shanghai University of Traditional Chinese Medicine. All rats were allowed to acclimatize for 3 days before experimentation. The rats were randomly divided into six groups (n = 5 for each group). […] The rats in groups 4, 5, and 6 were intragastrically administered YCHD every 24 h for 10 consecutive days. The rats in group 3 were orally administered UDCA at a dose of 100 mg/kg every 24 h for 10 consecutive days, which is well-documented to treat induced liver injury and cholestasis ([Chen et al., 2016]; [Cao et al., 2017]). Moreover, groups 1 and 2 were intragastrically treated with physiological saline (0.9%) at a dose of 1 mL/100 g. […] At the end of the experiment, all rats were euthanized by CO2 inhalation. The serum samples were stored at -70°C until analysis, and liver samples were isolated and stored at -70°C for further analysis, whereas the central part of the right large lobe of the liver was used for histological examination. […]"}, "OATP1A1": {"tested_on": "OATP1A1", "experiment": "Expression level of OATP1A1 in rat liver by UHPLC-MS/MS", "format": "in vivo", "conditions": "UDCA group, ANIT-treated rats; mean ± S.D.", "protocol": "as §1"}, "[1]": {"tested_on": "ANIT-induced intrahepatic cholestasis", "experiment": "Bile flow rate in ANIT-induced cholestatic rats", "format": "in vivo, rat", "conditions": "UDCA 100 mg/kg i.g. + ANIT 50 mg/kg; over 360 min at 48 h after ANIT; not significant vs model", "procedure": "Ltd. (Shanghai, China) and fed in the Laboratory Animal Center of Shanghai University of Traditional Chinese Medicine. […] The rats were randomly divided into six groups (n = 5 for each group). […] [Cao et al., 2017]). […] Before and 24 h after modeling, retro-orbital blood samples were collected in a coagulation tube, and they were then centrifuged at 4°C for 10 min (4000 rpm) to obtain the serum for the assay of ALT, AST, TBIL, DBIL, and TBA. At the end of the experiment, all rats were euthanized by CO2 inhalation. The serum samples were stored at -70°C until analysis, and liver samples were isolated and stored at -70°C for further analysis, whereas the central part of the right large lobe of the liver was used for histological examination.  FIGURE 2 The scheme of the animal experimental design. […] UDCA, positive control group treated with ursodeoxycholic acid (UDCA) (100 mg/kg, […].); […] A closed IV catheter system (Becton Dickinson, United States) was applied to cannulate the bile duct, and the bile specimens were collected into tubes at 2 h intervals for 6 h. The collected serum samples were maintained at room temperature to dissolve. The serum levels of ALT, AST, TBIL, DBIL, and TBA were then determined using a chemistry analyzer system (HITACHI 7080, Japan)."}, "[2]": {"conditions": "UDCA group, ANIT-treated rats, mean ± S.D."}},
  "data": [
    {"smiles": "C[C@H](CCC(=O)O)[C@H]1CC[C@H]2[C@@H]3[C@@H](O)C[C@@H]4C[C@H](O)CC[C@]4(C)[C@H]3CC[C@]12C", "note": "[UDCA, Ursodeoxycholic acid]", "values": [
      {"measurement": "Ugt1a1 expression level in rat liver", "setting": "UGT1A1; [2]", "value": "6.06±1.34", "unit": "fmol/μg protein"},
      {"measurement": "UGT1A1 level, fold higher", "setting": "UGT1A1; UDCA-treated cholestatic rats, liver, as compared with the control group, p < 0.01", "value": 2.1, "unit": "fold"},
      {"measurement": "Oatp1a2 expression level in rat liver", "setting": "OATP1A2; [2]", "value": "1.27±0.18", "unit": "fmol/μg protein"},
      {"measurement": "OATP1A2 level, fold higher", "setting": "OATP1A2; UDCA-treated cholestatic rats, liver, as compared with the control group, p < 0.05", "value": 1.5, "unit": "fold"},
      {"measurement": "Oatp1a1 expression level in rat liver", "setting": "OATP1A1", "value": "3.42±1.23", "unit": "fmol/μg protein"},
      {"measurement": "bile flow rate", "setting": "[1]", "value": "0.29 ± 0.12", "unit": "μL/min⋅100 g B.W."}
    ]}
  ]
}
